The record followed here is US20200054555A1, “CONTACT LENS WITH FUNCTIONAL COMPONENTS AND PRODUCTS THEREOF” (UNICON OPTICAL CO., LTD., priority 2018, published 2020).

The data set is described as follows: accumulated release of functional components from the contact lens over time, detected by high performance liquid chromatography. Conditions: with a cyclic oligosaccharide or cyclic polysaccharide. Type of data set: physicochemical. The protocol:
Further, the present invention uses high performance liquid chromatography to detect accumulation of the released functional components of the contact lens with increasing time. It is learned from FIG. 2: the contact lens of the present invention, which is a HEMA lens made up of 38% water by weight and a cyclic oligosaccharide or cyclic polysaccharide, can persistently release Vitamin B12 for a longer period of time (more than 12 hours). It is learned from FIG. 3: the contact lens of the present invention, which is an organosilicon hydrogel contact lens made up of 43% water by weight and a cyclic oligosaccharide or cyclic polysaccharide, can persistently release Vitamin B12 for a longer period of time (more than 12 hours). It is learned from FIG. 4: the contact lens of the present invention, which contains HEMA and 38% water by weight and a cyclic oligosaccharide or cyclic polysaccharide, can persistently release curcumin for a longer period of time (more than 20 hours). It is learned from FIG. 5: the contact lens of the present invention, which contains HEMA and 38% water by weight and a cyclic oligosaccharide or cyclic polysaccharide, can persistently release quercetin in a longer time interval (more than 20 hours). It is learned from FIG. 6: the contact lens of the present invention, which is made from HEMA and 38% water by weight, and a cyclic oligosaccharide or cyclic polysaccharide, can persistently release xanthophyll for a longer period of time (more than 30 hours).

Setting [1] is: HEMA contact lens, 38% water by weight, FIG. 2, 4, 5, 6.

On to xanthophyll, for which the “period of persistent release of the functional component from the contact lens” value (from here on “period”) under setting [1] is listed as “more than 30 hours”.

For the substance Vitamin B12, the “period” value under setting [1] is recorded as “more than 12 hours” and the “period” value (organosilicon hydrogel contact lens, 43% water by weight, FIG. 3) is “more than 12 hours”.
